According to patent publication US20230041996A1, “CALCIUM-SENSING RECEPTOR AGONIST COMPOUND AND APPLICATION THEREOF” (BEIJING TUO JIE BIOPHARMACEUTICAL CO. LTD., priority 2019, published 2023):
Square brackets hold non-standard residues; d marks the D form. Peptide text beside a SMILES is read from it. * marks the point of attachment. Cys(free,S-linked) = N[C@@H](CS*)C(=O)O; d2Thi = N[C@H](Cc1cccs1)C(=O)O; dAbu = CC[C@@H](N)C(=O)O

Experiments:
human red blood cells = assay: Hemolytic effect on human red blood cells in vitro (absorbance at 540 nm); type: cell-based; conditions: 100 μg/mL in PBS, 37° C., 1 h, FIG. 1
Protocol: To evaluate the hemolytic effect of the compounds disclosed herein on red blood cells in vitro, human whole blood (100 μL) was taken and mixed with a phosphate buffer. The mixture was centrifuged at 4° C. for 10 min and the supernatant was discarded. The red blood cells were resuspended in PBS buffer (900 μL) and centrifuged at 4° C. for 10 min with the supernatant discarded, and the procedures above were repeated once. The test example compounds were dissolved in 1×PBS buffer to a final concentration of 100 μg/mL. The red blood cells were resuspended in solutions of various test example compounds, an octylphenoxy poly(ethyleneoxy)ethanol-100 solution or PBS buffer, and incubated at 37° C. for 1 h. After incubation, the cells were centrifuged at 4° C. for 10 min and the supernatant (100 μL) was pipetted and transferred to a 96-well plate. The absorbance at 540 nm was detected for evaluating the hemolytic effect of the test example compounds on red blood cells in vitro.

[1] = tested on: normal rats (Sprague Dawley); assay: In vivo efficacy in normal rat model after a single dose (plasma parathyroid hormone, serum calcium); conditions: 3 mg/kg intravenous single dose; for serum calcium level: FIG. 3; for plasma parathyroid hormone level: within 4 h, FIG. 2
Excerpt: 3.4 Evaluation of In Vivo Efficacy of Some of the Compounds Disclosed Herein in a Normal Rat Model after a Single Dose 3.4.1 Objective: To Evaluate the Efficacy of the Test Compounds in Reducing Plasma Parathyroid Hormone Levels after a Single Dose in a Normal Rat Model.
SPF normal adult rats (Sprague Dawley, or SD) with weight of 250-350 g were fed with normal diet in an animal room for 7 days. Rats were randomized into groups of 6, half female and half male, and numbered. One day before the start of treatment, 540 μL of blood was collected from each rat, and the plasma parathyroid hormone level and the serum calcium concentration were measured as baseline. The plasma was separated by K2-EDTA anticoagulation. Blood was collected through jugular vein and preserved on ice after collection. The whole blood was centrifuged at 6,800 rpm for 6 minutes at 2-8° C. The supernatant, i.e., the plasma, was collected and preserved at 2-8° C. For serum separation, blood was collected through jugular vein, let stand at room temperature for 1 h, and centrifuged at room temperature at 3,500 rpm for 10 min. The supernatant, i.e., the serum, was collected and preserved at room temperature. The animals were fasted overnight with free access to water the day before treatment. The day after blood sampling, example compounds 13, 17, 31 and etelcalcetide (AMG-416) were dissolved in a phosphate buffered saline (PBS, Gibco). The rats were intravenously administered with example compounds 13, 17, 31 or etelcalcetide 3 mg/kg or an equal volume of PBS buffer. Subsequently, blood samples were collected as per the following procedures for measuring the parameters. 100 μL of blood was collected at 1 h, 2 h and 4 h post-dose, and the plasma was separated according to the procedures above. The plasma parathyroid hormone levels were measured using the Rat Intact PTH ELISA Kit (Quidel—Immunotopics, Cat. #: 60-2500; ELISA: Enzyme-linked immunosorbent assay) according to the kit instructions. The detailed procedures are as follows: using the streptavidin-preplated reaction strips provided in the kit, 25 μL of reference standard, control or plasma samples were added to the wells. Biotinylated rat parathyroid hormone antibody and rat parathyroid hormone/HRP binding antibody were mixed at a ratio of 1:1, and 100 μL of the mixed solution was added to each well. The reaction strip was sealed with a sealing film, wrapped with an aluminum foil for storage in dark, and shaken on a horizontal shaker at room temperature for 3 h at a rotation speed of 220 rpm. The solutions in the wells were discarded. 350 μL of cleaning working solution was added to the wells for washing and then discarded; 5 washes were performed with the same procedures. Finally the wells were dried. To each well was added 150 μL of horseradish peroxidase ELISA substrate. The reaction strip was sealed with a sealing film, wrapped with an aluminum foil for storage in dark, and shaken on a horizontal shaker at room temperature for 30 min at a rotation speed of 180-220 rpm. 100 μL of ELISA terminating solution was added to each well, and the strip was shaken at 180-220 rpm for 1 min on a horizontal shaker at room temperature. The absorbance at 450 nm in each well was detected within 10 min after the addition of the ELISA terminating solution, while the absorbance at 620 nm was subtracted as background. A mixture of horseradish peroxidase ELISA substrate 150 μL and ELISA terminating solution 100 μL was used as the blank control in the absorbance detection. A standard curve according to the absorbance of the reference standard was plotted, and the actual plasma parathyroid hormone concentration was calculated according to the absorbance of other samples and the standard curve. The determination of the serum calcium concentration was conducted according to the procedures of the relevant kit.

5/6 nephrectomized rats = assay: In vivo efficacy in 5/6 nephrectomized rat model after continuous administration (plasma parathyroid hormone, serum calcium)
Excerpt: 3.5.1 Objective: to evaluate the efficacy of some of the compounds disclosed herein in reducing plasma parathyroid hormone level and serum calcium level after continuous administration in a 5/6 nephrectomized rat model.
The rats were adapted. After anesthesia, ⅔ of the left kidney was surgically resected, and after 1 week of recovery, the right kidney was resected to establish the 5/6 nephrectomized rat model. After the second resection, the animals were normally fed for 2 weeks, tested for creatinine (CREA) and plasma parathyroid hormone level, and randomized as per the parathyroid hormone level into 4 groups of 10, including normal saline group, compound 17—low dose group, compound 17—high dose group and etelcalcetide group. After randomization, the normal saline group, compound 17—low dose group, compound 17—high dose group and etelcalcetide group were respectively administered with 1 dose of normal saline, 1 mg/kg of compound 17, 2 mg/kg of compound 17 and 1 mg/kg of etelcalcetide through the tail vein daily for 28 days. During the treatment period, parameters such as animal weight, plasma parathyroid hormone level and serum calcium were detected. The first day of treatment was taken as day 1.

Structure (SMILES) | hemolytic effect on red blood cells (human red blood cells) | serum calcium level [1] | plasma parathyroid hormone level [1] | plasma parathyroid hormone level compared with the normal saline group (5/6 nephrectomized rats; 1 mg/kg and 2 mg/kg daily via tail vein for 28 days) | suppression of plasma parathyroid hormone level versus etelcalcetide at the same dose (5/6 nephrectomized rats; 1 mg/kg, 6 h and 16 h post-dose, FIG. 4) | serum calcium reduction (5/6 nephrectomized rats; after administration on days 1, 14 and 28) | persistence to reduce serum calcium levels versus etelcalcetide at the same dose (5/6 nephrectomized rats; day 28) | maximal reduction in serum calcium versus etelcalcetide at the same dose (5/6 nephrectomized rats; days 1, 14 and 28, FIG. 5) | extent of serum calcium reduction with the period of treatment (5/6 nephrectomized rats; minimum of serum calcium on days 14 and 28 compared to day 1)
CC(=O)N[C@H](CSSC[C@H](N)C(=O)O)C(=O)N[C@H](CCCNC(=N)N)C(=O)N[C@H](CCCNC(=N)N)C(=O)N[C@H](Cc1cccs1)C(=O)N[C@H](CCCNC(=N)N)C(=O)N[C@H](C)C(=O)N[C@H](CCCNC(=N)N)C(N)=O [Compound 13, Ac-c(C)-r-r-(D-2-Thi)-r-a-r-NH2] (Ac-[dC](Cys(free,S-linked))[dR][dR][d2Thi][dR][dA][dR]-NH2) | no significant hemolytic effect | corresponding reduction | completely reduced | – | – | – | – | – | –
CC[C@@H](NC(=O)[C@@H](CCCNC(=N)N)NC(=O)[C@@H](CCCNC(=N)N)NC(=O)[C@@H](CSSC[C@H](N)C(=O)O)NC(C)=O)C(=O)N[C@H](CCCNC(=N)N)C(=O)N[C@H](C)C(=O)N[C@H](CCCNC(=N)N)C(N)=O [Compound 17, Ac-c(C)-r-r-(D-Abu)-r-a-r-NH2] (Ac-[dC](Cys(free,S-linked))[dR][dR][dAbu][dR][dA][dR]-NH2) | no significant hemolytic effect | corresponding reduction | completely reduced | reduced the plasma parathyroid hormone level in rats in a dose dependent manner | slightly superior or comparable magnitude to that of etelcalcetide | reversible serum calcium reduction | superior and significantly different | comparable to etelcalcetide | did not increase with the period of treatment
CC[C@@H](NC(=O)[C@@H](CCCNC(=N)N)NC(=O)[C@@H](CCCNC(=N)N)NC(=O)[C@@H](CSSC[C@H](N)C(=O)O)NC(C)=O)C(=O)N[C@H](CCCNC(=N)N)C(=O)N[C@H](CO)C(=O)N[C@H](CCCNC(=N)N)C(N)=O [Compound 31, Ac-c(C)-r-r-(D-Abu)-r-s-r-NH2] (Ac-[dC](Cys(free,S-linked))[dR][dR][dAbu][dR][dS][dR]-NH2) | no significant hemolytic effect | corresponding reduction | completely reduced | – | – | – | – | – | –
